Experimental data taken from patent publication US9693997B2, “Antiviral compounds” (priority 2013, dated 2017).
Structures can show the parent of a compound that is named as a salt.

What was measured:
[1] = test system: Pseudotyped HCV GT1b particles (HCVpp), entry into Huh7-high CD81 cells; assay: microbe, parasite or virus in culture; type: cell-based, HCV GT1b Con1 strain; conditions: Hepatitis C virus, GT1B, 72 h, read-out: HCVpp GT-1b (EC50, μM)
[2] = test system: pseudotyped VSV G particles (VSVpp) in Huh7-high CD81 cells; assay: microbe, parasite or virus in culture; type: cell-based, vesicular stomatitis virus; conditions: Vesicular stomatitis virus, 72 h, read-out: VSVpp (EC50, μM)

Compound	EC50 [1] [µM]	EC50 [2] [µM]
Nc1nc(Nc2cc(Cl)c(-c3ccc(NC(=O)C4CCOCC4)cc3)c(Cl)c2)n[nH]1 [Compound 82, Tetrahydropyran-4-carboxylic acid-(4′-(5-amino-1H-[1,2,4]triazol-3-ylamino)-2′,6′-dichlorobiphenyl-4-yl)-amide]	0.39	> 10
Nc1nc(Nc2cc(Cl)c(-c3ccc(S(=O)(=O)N4CCC[C@H]4C(=O)O)cc3)c(C(F)(F)F)c2)n[nH]1 [Compound 51, (S)-1-[4′-(5-Amino-1H-[1,2,4]triazol-3-ylamino)-2′-chloro-6′-trifluoromethyl-biphenyl-4-sulfonyl]-pyrrolidine-2-carboxylic acid]	0.678	> 10
CC(C)(C)OC(=O)[C@@H]1CCCN1S(=O)(=O)c1ccc(-c2c(Cl)cc(Nc3n[nH]c(N)n3)cc2C(F)(F)F)cc1 [Compound 3, (S)-1-[4′-(5-Amino-1H-[1,2,4]triazol-3-ylamino)-2′-chloro-6′-trifluoromethyl-biphenyl-4-sulfonyl]-pyrrolidine-2-carboxylic acid tert-butyl ester]	0.005	4.37
Nc1nc(Nc2cc(Cl)c(-c3ccc(S(=O)(=O)NCCO)cc3)c(C(F)(F)F)c2)n[nH]1 [Compound 161, 4′-(5-Amino-1H-[1,2,4]triazol-3-ylamino)-2′-chloro-6′-trifluoromethyl-biphenyl-4-sulfonic acid (2-hydroxy-ethyl)-amide]	0.058	26.8
CC(C)(C)OC(=O)N1CCN(S(=O)(=O)c2ccc(-c3c(Cl)cc(Nc4n[nH]c(N)n4)cc3C(F)(F)F)cc2)C2(CC2)C1 [Compound 208, tert-butyl 4-(4′-(5-amino-1H-1,2,4-triazol-3-ylamino)-2′-chloro-6′-(trifluoromethyl)biphenyl-4-ylsulfonyl)-4,7-diazaspiro[2.5]octane-7-carboxylate]	0.049	> 10
CC(C)(C)OC(=O)N1CCC[C@@H]1COc1ccc(-c2c(Cl)cc(Nc3n[nH]c(N)n3)cc2Cl)cc1 [Compound 275, (R)-2-[4′-(5-Amino-1H-[1,2,4]triazol-3-ylamino)-2′,6′-dichloro-biphenyl-4-yloxymethyl]-pyrrolidine-1-carboxylic acid tert-butyl ester]	0.285	> 10
CS(=O)(=O)CCCN1CCC(Oc2ccc(-c3c(Cl)cc(Nc4n[nH]c(N)n4)cc3C(F)(F)F)cc2)CC1 [Compound 142, N*3*-{6-Chloro-4′-[1-(3-methanesulfonyl-propyl)-piperidin-4-yloxy]-2-trifluoromethyl-biphenyl-4-yl}-1H-[1,2,4]triazole-3,5-diamine hydrochloride]	0.242	> 10
CS(=O)(=O)c1ccc(-c2c(F)cc(Nc3nc(N)n[nH]3)cc2C(F)(F)F)cc1 [Compound 70, N^5-(2-Fluoro-4′-(methylsulfonyl)-6-trifluoromethylbiphenyl-4-yl)-1H-[1,2,4]-triazole-3,5-diamine]	0.064	5.15
CN1C(C)(C)CC(Sc2ccc(-c3c(Cl)cc(Nc4n[nH]c(N)n4)cc3C(F)(F)F)cc2)CC1(C)C [Compound 127, N*3*-[6-Chloro-4′-(1,2,2,6,6-pentamethyl-piperidin-4-ylsulfanyl)-2-trifluoromethyl-biphenyl-4-yl]-1H-[1,2,4]triazole-3,5-diamine]	0.144	9.69
Nc1nc(Nc2cc(Cl)c(-c3ccc(S(=O)(=O)N4CC(O)C4)cc3)c(C(F)(F)F)c2)n[nH]1 [Compound 191, 1-(4′-(5-amino-1H-1,2,4-triazol-3-ylamino)-2′-chloro-6′-(trifluoromethyl)biphenyl-4-ylsulfonyl)azetidin-3-ol]	0.069	25
Nc1nc(Nc2cc(Cl)c(-c3ccc(S(=O)(=O)CC4CCNCC4)cc3)c(C(F)(F)F)c2)n[nH]1 [Compound 40, N*3*-[2-Chloro-4′-(piperidin-4-ylmethanesulfonyl)-6-trifluoromethyl-biphenyl-4-yl]-1H-[1,2,4]triazole-3,5-diamine; hydrochloride]	0.073	31.7
